Results from ChEMBL document CHEMBL4825726, “Structural insights in galectin-1-glycan recognition: Relevance of the glycosidic linkage and the N-acetylation pattern of sugar moieties” (Bioorg Med Chem, 2021).

How the values were obtained:
Galectin-1 [1] = molecular target: T1, Galectin-1 (Homo sapiens, UniProt P09382); test: Binding affinity to human Gal-1 assessed as dissociation constant by isothermal titration calorimetry
Galectin-1 [2] = molecular target: T1, Galectin-1; test: Binding affinity to human Gal-1 assessed as change in enthalpy by isothermal titration calorimetry
Galectin-1 [3] = molecular target: T1, Galectin-1; test: Binding affinity to human Gal-1 assessed as Gibbs free energy change by isothermal titration calorimetry
Galectin-1 [4] = molecular target: T1, Galectin-1; test: Binding affinity to human Gal-1 assessed as inhibition of Gal-1 binding to immobilized asialofetuin pretreated with Gal-1 for 2 hrs followed by incubation with asialofetuin for 2 hrs by competitive solid phase assay
Galectin-1 [5] = molecular target: T1, Galectin-1; test: Binding affinity to human Gal-1 assessed as change in entropy by isothermal titration calorimetry
Galectin-1 [6] = molecular target: T1, Galectin-1; test: Binding affinity to human Gal-1 assessed as inhibition of Gal-1 binding to immobilized asialofetuin pretreated with Gal-1 for 2 hrs followed by incubation with asialofetuin for 2 hrs by competitive solid phase assay relative to lactose; conditions: time 4.0 hrs

T1 sequence (P09382 whole entry): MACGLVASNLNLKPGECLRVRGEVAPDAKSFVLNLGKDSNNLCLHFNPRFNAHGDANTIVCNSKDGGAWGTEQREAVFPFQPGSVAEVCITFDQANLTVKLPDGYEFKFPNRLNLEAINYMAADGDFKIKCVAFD

Q: What does the source list for `OC[C@H]1O[C@@H](OC[C@H]2OC(O)[C@H](O)[C@@H](O)[C@@H]2O)[C@H](O)[C@@H](O)[C@H]1O` (stereo partly specified)?
A: Kd (Galectin-1 [1]): 1330 µM; deltaH (Galectin-1 [2]): -1.79 kcal/mol; deltaG (Galectin-1 [3]): -3.92 kcal/mol; IC50 (Galectin-1 [4]): Not Active; -TdeltaS (Galectin-1 [5]): -2.13 kcal/mol

Q: How did the Kd (Galectin-1 [1]) turn out when `CC(=O)N[C@H]1C(O)O[C@H](CO[C@@H]2O[C@H](CO)[C@H](O)[C@H](O)[C@H]2O)[C@@H](O)[C@@H]1O` (stereo partly specified) was run?
A: 499 µM

Q: What about the deltaH (Galectin-1 [2]) of the same compound?
A: -4.28 kcal/mol

Q: And the deltaG (Galectin-1 [3])?
A: -4.49 kcal/mol

Q: What about the IC50 (Galectin-1 [4]; read-out: IC50) of the same compound?
A: 13000 µM

Q: What about the Ratio (Galectin-1 [6]) of the same compound?
A: 0.36

Q: What about the -TdeltaS (Galectin-1 [5]) of the same compound?
A: -0.215 kcal/mol

Q: And the deltaS (Galectin-1 [5])?
A: 3 J/mol.K

Q: Which results are given for `CC(=O)N[C@H]1C(O)O[C@H](CO)[C@@H](O[C@@H]2O[C@H](CO)[C@H](O)[C@H](O)[C@H]2O)[C@@H]1O` (stereo partly specified)?
A: Kd (Galectin-1 [1]): 96 µM; deltaH (Galectin-1 [2]): -12 kcal/mol; deltaG (Galectin-1 [3]): -5.47 kcal/mol; IC50 (Galectin-1 [4]; read-out: IC50): 1970 µM; Ratio (Galectin-1 [6]): 2.37; -TdeltaS (Galectin-1 [5]): 6.55 kcal/mol; deltaS (Galectin-1 [5]): -91.9 J/mol.K

Q: `CC(=O)N[C@H]1C(O)O[C@H](CO)[C@@H](O)[C@@H]1O[C@@H]1O[C@H](CO)[C@H](O)[C@H](O)[C@H]1O` (stereo partly specified) was tested. Which Kd (Galectin-1 [1]) did it give?
A: 161 µM

Q: What about the deltaH (Galectin-1 [2]) of the same compound?
A: -11.4 kcal/mol

Q: What about the deltaG (Galectin-1 [3]) of the same compound?
A: -5.19 kcal/mol

Q: And the IC50 (Galectin-1 [4]; read-out: IC50)?
A: 2050 µM

Q: And the Ratio (Galectin-1 [6])?
A: 2.37

Q: What about the -TdeltaS (Galectin-1 [5]) of the same compound?
A: 6.21 kcal/mol

Q: What about the deltaS (Galectin-1 [5]) of the same compound?
A: -87.2 J/mol.K

Q: Which results are given for `OC[C@H]1O[C@@H](O[C@H]2[C@H](O)[C@@H](O)C(O)O[C@@H]2CO)[C@H](O)[C@@H](O)[C@H]1O` (stereo partly specified)?
A: deltaH (Galectin-1 [2]): -10.8 kcal/mol; -TdeltaS (Galectin-1 [5]): 5.71 kcal/mol; deltaS (Galectin-1 [5]): -80.2 J/mol.K

Q: How did the Kd (Galectin-1 [1]) turn out when `CC(=O)N[C@H]1[C@H](O[C@H]2[C@H](O)[C@@H](NC(C)=O)C(O)O[C@@H]2CO)O[C@H](CO[C@@H]2O[C@H](CO)[C@H](O)[C@H](O)[C@H]2O)[C@@H](O)[C@@H]1O` (stereo partly specified) was run?
A: 770 µM

Q: And the deltaH (Galectin-1 [2])?
A: -3.66 kcal/mol

Q: What about the deltaG (Galectin-1 [3]) of the same compound?
A: -4.25 kcal/mol

Q: What about the IC50 (Galectin-1 [4]; read-out: IC50) of the same compound?
A: 21200 µM

Q: And the Ratio (Galectin-1 [6])?
A: 0.22

Q: What about the -TdeltaS (Galectin-1 [5]) of the same compound?
A: -0.598 kcal/mol

Q: And the deltaS (Galectin-1 [5])?
A: 8.4 J/mol.K
